Experimental data: patent publication US9566247B2, “Nanoparticles for controlled release of anti-biofilm agents and methods of use” (priority 2013, dated 2017)

Assays:
[1] = tested on: Streptococcus mutants (S. mutans); conditions: cited from earlier work
[2] = tested on: Biofilms of S. mutans UA159; assay: Antibiofilm activity, CFU per dry weight of biofilms on sHA discs; type: cell-based, Streptococcus mutans; conditions: equivalent dose of free farnesol (15% EtOH) or free NPC
Procedure: Biofilms of S. mutans UA159 were formed on saliva coated hydroxyapatite (sHA) surfaces (12.7 mm in diameter, 1 mm in thickness, Clarkson Chromatography Products Inc., South Williamsport, Pa.) as detailed elsewhere (Koo et al., 2010, J Bacteriol, 192(12):3024-32). The HA discs were placed vertically using a custom-made holder and grown in UFTYE (pH 7.0) with 1% sucrose at 37° C. and 5% CO2. Disks were pretreated with the above-described solutions for 10 min, washed twice with sterile saline, and transferred back to culture media. The first treatment was applied directly after salivary pellicle formation (sHA) then treated disks were transferred to culture media containing S. mutans (10^5 CFU/ml). Biofilms were allowed to form on the discs without interruption for 6 hours at which point a second treatment was applied. The next day, biofilms were treated every 6 hours for a total of 3 treatments and the culture media was changed twice. After 48 hours, the amount of colony forming units (CFU) per dry-weight of biofilms was assessed. Briefly, the biofilms were removed and homogenized, then plated onto blood agar plates, and after incubation at 37° C., 5% CO2, the CFUs were counted as described previously (Koo et al., 2003, J Antimicrob Chemother, 52(5):782-9).

Structure (SMILES): CC(C)=CCCC(C)=CCCC(C)=CCO [farnesol]
- MIC [1]: < 28 µg/mL
- effect on CFU relative to PBS [2]: no effect on CFU
